Experimental data reported in patent publication US20170058314A1, “NOVEL METHODOLOGY FOR IDENTIFYING ANTI-PERSISTER ACTIVITY AND ANTIMICROBIAL SUSCEPTIBILITY FOR BORRELIA BURGDORFERI AND OTHER BACTERIA” (priority 2014, published 2017).
≈ marks a conversion by molar mass, not a printed value. Where “and” joins values, the source holds several entries; their conditions need not be identical. Equal entries are not always repeated.

What was measured:
[1] = test system: stationary phase B. burgdorferi persisters (strain B31); conditions: drug alone; cited from earlier work
[2] = test system: round body form of B. burgdorferi; assay: SYBR Green I/PI assay on amoxicillin-induced round body form; conditions: for viability at 50 µM: Borreliella burgdorferi, 168 h, read-out: Residual viable cells (SYBR Green I/PI assay); for Ratios of green/red fluorescence, Primary screening / Ratios of green/red fluorescence, Rescreening (first column) / Ratios of green/red fluorescence, Rescreening (second column): round body form, 50 μM, 7 days
M. tuberculosis H37Ra = type: cell-based, Mycobacterium tuberculosis; conditions: pH 5.9
[3] = test system: log phase and stationary phase B. burgdorferi culture; assay: Antibiotic exposure assay, SYBR Green I/PI (drugs alone and combinations); conditions: Borreliella burgdorferi, 168 h, read-out: Live Cell % (residual viable B. burgdorferi), ten-day-old stationary phase culture enriched with micro-colonies, 10 μg/mL each drug, 7 days
Outline: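 Stationary-phase or round-body B. burgdorferi exposed 7 days at 33 °C to drugs alone or combined at 10 μg/mL each (single-compound screen: 50 μM final). Viability by SYBR Green I/PI, ex 485, em 535/635 nm; percent live from regression of green/red ratio, corrected by direct microscopy counting.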

[4] = test system: B. burgdorferi log and stationary phase cultures; assay: epi-fluorescence microscope counting after antibiotic exposure (persister frequency, planktonic forms); type: cell-based, Borrelia burgdorferi
Method: Specimens were examined on a Nikon Eclipse E800 microscope equipped with differential interference contrast (DIC) and epi-fluorescence illumination, and recorded with a Spot slider color camera. Cell proliferation assays were performed by direct counting using a bacterial counting chamber (Hausser Scientific Partnership) and DIC microscopy. SYBR Green I/PI assay was performed to assess the viability of B. burgdorferi. The ratio of live (green) and dead (red) B. burgdorferi was calculated by counting these cells using a bacterial counting chamber and epi-fluorescence microscopy. The three representative images of every sample were captured for quantitative analysis. Image Pro-Plus software was applied for measuring the biomass (fluorescence intensity) of different forms (spirochetes, round body, and microcolony) of B. burgdorferi as previously described (Shopov and Williams, 2000).
To qualitatively determine the effect of antibiotics, 10 μL of each compound from the pre-diluted plate or pre-diluted stock was added to stationary phase B. burgdorferi culture in the 96-well plate. The final volume per well was adjusted to 100 μL at a concentration of 10 μg/mL for each antibiotic. Plates were sealed and placed in a 33° C. incubator for 7 days. The SYBR Green I/PI viability assay was used to assess the live and dead cells after antibiotic exposure as described (Feng, Wang, Shi, et al., 2014). Briefly, 10 μL of SYBR Green I (10,000×stock, Invitrogen) was mixed with 30 μL propidium iodide (PI, 20 mM) into 1.0 mL of sterile dH2O. Then, 10 μL of staining mixture was added to each well and mixed thoroughly. The plates were incubated at room temperature in the dark for 15 minutes followed by plate reading at excitation wavelength at 485 nm and the fluorescence intensity at 535 nm (green emission) and 635 nm (red emission) in microplate reader (HTS 7000 plus Bio Assay Reader, PerkinElmer Inc., USA). With least-square fitting analysis, the regression equation and regression curve of the relationship between percentage of live bacteria and green/red fluorescence ratios was obtained. The regression equation was used to calculate the percentage of live cells in each well of the 96-well plate.
Therefore, the frequency of B. burgdorferi persisters in log phase and stationary phase cultures was assessed using the SYBR Green I/PI viability assay after exposure of the cultures to antimicrobials. E. coli culture was used as a control after exposure to antibiotics to validate the SYBR Green I/PI viability assay for persister frequency assessment.

[5] = test system: E. coli strains (W3110, UTI89, CFT073, KTE181); assay: Rapid SYBR Green/PI antibiotic susceptibility test; type: cell-based, Escherichia coli; conditions: for percent killed, sensitive strain W3110: others 25 μg/mL
[6] = test system: K. pneumoniae (Isolate 7); assay: Rapid SYBR Green/PI antibiotic susceptibility test, 30 minutes; type: cell-based, Klebsiella pneumoniae; conditions: 25 μg/mL
[7] = test system: stationary phase B. burgdorferi persisters (strain B31); assay: SYBR Green I/PI viability assay (plate reader), FDA-approved drug library screen
[8] = test system: stationary phase B. burgdorferi persisters (strain B31); assay: epifluorescence microscope counting after SYBR Green I/PI staining, FDA drug screen; conditions: Borreliella burgdorferi, 168 h, read-out: Residual viable cells (epifluorescence microscope counting)
[9] = test system: B. burgdorferi (growing, strain B31); assay: MIC determination, standard microdilution method; type: cell-based, Borrelia burgdorferi; conditions: Borreliella burgdorferi; growing B. burgdorferi; read-out: MIC
[10] = test system: S. aureus strains (Newman, USA300, CA-409, CA-127, NY-315); assay: Rapid SYBR Green/PI antibiotic susceptibility test; type: cell-based, Staphylococcus aureus; conditions: for cut-off (averaged proportion of killed cells) for resistant strains / cut-off (averaged proportion of killed cells) for susceptible strains: 100 μg/mL, 1.5 hours
B. burgdorferi = conditions: after 72 h; Kraiczy et al., 2001; cited from earlier work
S. aureus USA300 = assay: MIC by broth microdilution (OD600) and SYBR Green/PI; type: cell-based; conditions: Staphylococcus aureus; S. aureus USA300, overnight incubation
E. coli W3110 = assay: as above; type: cell-based; conditions: Escherichia coli; E. coli W3110, overnight incubation
From the text: The Kirby-Bauer disk diffusion assay was used to determine the susceptibility of the various strains to antibiotics. Instructions and also interpretation of zone diameters were made using the established standards as listed in the Clinical and Laboratory Standards Institute (CLSI). Briefly, bacterial cultures were adjusted to a 0.5 McFarland turbidity standard and spread onto Mueller-Hinton agar. Paper Disks were impregnated onto the agar and the antibiotics at concentrations recommended by CLSI were pipetted onto each blank disk and allowed to air dry for 10 minutes. The plates were incubated at 37° C. overnight before the zone of inhibition was measured in millimeters. […]
The staining dye for Staphylococcus aureus, Escherichia coli, Acinetobacter baumanii, and Mycobacterium tuberculosis were made by mixing SYBR Green I to propidium iodide (1:3) in 100 μl distilled H2O. […] The green and red fluorescence intensity was detected using a Synergy H1 microplate reader by Bio Tek Instruments (VT, USA) at excitation wavelength of 485 nm, 538 nm (green emission), and 612 nm (red emission). The percentage of live cells in each sample was determined by a regression equation generated by a standard curve. […] The staining mixture was added to each sample and the green/red fluorescent ratios were measured as described above. […]

E. coli UTI89 persisters = assay: Persister assay (CFU enumeration and SYBR Green/PI); type: cell-based, Escherichia coli; conditions: ampicillin 100, ofloxacin 5, polymycin B 10, gentamicin 20 μg/mL
Method: Stationary phase cultures of E. coli UTI89 were treated with ofloxacin (5 μg/mL) for 4 hours to enrich for persisters, followed by drug exposure with different antibiotics including ampicillin (100 μg/mL), ofloxacin (5 μg/mL), polymycin B (10 μg/mL) and gentamicin (20 μg/mL). The bacterial viability was determined by CFU enumeration and SYBR Green/PI assay as described above.

[11] = 30 minutes, ampicillin 100 μg/mL
[12] = 50 μM, 7 days, stationary phase
[13] = ampicillin, streptomycin 100 μg/mL, trimethoprim 5 μg/mL

## Cc1ccc(C(C)C)c(O)c1 [Thymol]
[1]
  residual live cell percentage, stationary phase, previous drug screen: 82%
[2]
  viability at 50 µM: 34%
  Ratios of green/red fluorescence, Primary screening: 6.15
  Ratios of green/red fluorescence, Rescreening (first column): 6.36
  Ratios of green/red fluorescence, Rescreening (second column): 6.36

## NC(=O)c1cnccn1 [PZA, pyrazinamide]
M. tuberculosis H37Ra
  susceptibility of parent strain H37Ra: susceptible

## CO/N=C(\C(=O)N[C@@H]1C(=O)N2C(C(=O)O)=C(CSc3nc(=O)c(=O)[nH]n3C)CS[C@H]12)c1csc(N)n1 [Ceftriaxone]
[3]
  viability at 10 µg/mL: 68%
[4]; 3-day log phase culture
  persister frequency (percentage of live cells after antibiotic treatment, in brackets): (5.8%)
[4]; 7-day stationary phase culture
  persister frequency (in brackets): (16%)
[4]; 10-day stationary phase culture
  persister frequency (in brackets): (~25%)
[5]; [11]
  percent killed, sensitive strain W3110: 37%
[6]
  killing of resistant K. pneumoniae strain: not killed at all
[2]
  viability at 50 µM: 36%
  Ratios of green/red fluorescence, Primary screening: 6.37
  Ratios of green/red fluorescence, Rescreening (first column): 6.29
  Ratios of green/red fluorescence, Rescreening (second column): 6.39
[7]; [12]
  Ratio of Green/Red fluorescence, Primary screening: 6.74
  Ratio of Green/Red fluorescence, Rescreening (first column): 6.89
  Ratio of Green/Red fluorescence, Rescreening (second column): 6.78
[7]; Borreliella burgdorferi, 168 h, read-out: Residual viable cells (regression equation, SYBR Green I/PI assay)
  viability at 50 µM: 44%
[8]
  viability at 50 µM: 50%

## O=C(O)c1cn(C2CC2)c2cc(N3CCNCC3)c(F)cc2c1=O [Ciprofloxacin]
[9]
  MIC: 0.8 to 1.6 µg/mL (≈ 2.41 to 4.83 µM)
[10]
  cut-off (averaged proportion of killed cells) for resistant strains: −0.1
  cut-off (averaged proportion of killed cells) for susceptible strains: −0.3
[10]; 30 minutes, kanamycin 25, ciprofloxacin 50, gentamicin 400 μg/mL
  percent killed, resistant strain CA-409: 21%
[10]; 30 minutes, kanamycin 25, erythromycin 400, ciprofloxacin 50, gentamicin 400 μg/mL
  percent killed, sensitive Newman strain: 58%
B. burgdorferi
  MBC: 16 μg/mL and 41.5 μM

## O=C(N[C@H](CO)[C@H](O)c1ccc([N+](=O)[O-])cc1)C(Cl)Cl [chloramphenicol]
S. aureus USA300
  MIC: 4 µg/mL (≈ 12.4 µM)
[10]
  cut-off (averaged proportion of killed cells) for resistant strains: −0.1
  cut-off (averaged proportion of killed cells) for susceptible strains: −0.5

## CC1(C)S[C@@H]2[C@H](NC(=O)[C@H](N)c3ccccc3)C(=O)N2[C@H]1C(=O)O [ampicillin]
E. coli W3110
  MIC: 8 µg/mL
[5]; [11]
  percent killed, sensitive strain UTI89: 23%
  percent killed, sensitive strain W3110: 38%
[5]; 30 minutes, ampicillin 100, trimethoprim 25, streptomycin 25 μg/mL
  percent killed, resistant strain KTE181: 1%
[5]; [13]
  cut-off (averaged proportion of killed cells) for resistant strains: -0.1
  cut-off (averaged proportion of killed cells) for susceptible strains: −0.5
E. coli UTI89 persisters
  level of persisters over 7 days (words; CFU and SYBR Green/PI): stayed constant
